Tests used:
Assay in all cases: Flashplate
[1] = target: AKT1 (human) (UniProt P31749)
[2] = target: AKT2 (human) (UniProt P31751)
[3] = target: AURKB (human) (UniProt Q96GD4)
[4] = target: BRSK1 (human) (UniProt Q8TDC3)
[5] = target: CAMK2G (human) (UniProt Q13555)
[6] = target: CDC42BPA (human) (UniProt Q5VT25)
[7] = target: CDK1 (human) (UniProt P06493)
[8] = target: CHEK1 (human) (UniProt O14757)
[9] = target: CHEK2 (human) (UniProt O96017)
[10] = target: CLK2 (human) (UniProt P49760)
[11] = target: CLK4 (human) (UniProt Q9HAZ1)
[12] = target: CSNK1D (human) (UniProt P48730)
[13] = target: CSNK1G1 (human) (UniProt Q9HCP0)
[14] = target: CSNK1G2 (human) (UniProt P78368)
[15] = target: CSNK1G3 (human) (UniProt Q9Y6M4)
[16] = target: DAPK3 (human) (UniProt O43293)
[17] = target: DYRK1A (human) (UniProt Q13627)
[18] = target: GSK3A (human) (UniProt P49840)
[19] = target: GSK3B (human) (UniProt P49841)
[20] = target: HIPK4 (human) (UniProt Q8NE63)
[21] = target: MAPK12 (human) (UniProt P53778)
[22] = target: MAPKAPK2 (human) (UniProt P49137)
[23] = target: MELK (human) (UniProt Q14680)
[24] = target: MKNK2 (human) (UniProt Q9HBH9)
[25] = target: NEK4 (human) (UniProt P51957)
[26] = target: PAK1 (human) (UniProt Q13153)
[27] = target: PDPK1 (human) (UniProt O15530)
[28] = target: PHKG2 (human) (UniProt P15735)
[29] = target: PIM3 (human) (UniProt Q86V86)
[30] = target: PKN2 (human) (UniProt Q16513)
[31] = target: PLK1 (human) (UniProt P53350)
[32] = target: PLK4 (human) (UniProt O00444)
[33] = target: PRKCD (human) (UniProt Q05655)
[34] = target: PRKCZ (human) (UniProt Q05513)
[35] = target: PRKG1 (human) (UniProt Q13976)
[36] = target: PRKG2 (human) (UniProt Q13237)
[37] = target: RPS6KA3 KD1 KD2 (human) (UniProt P51812)
[38] = target: SGK1 (human) (UniProt O00141)
[39] = target: STK17A (human) (UniProt Q9UEE5)
[40] = target: TAOK1 (human) (UniProt Q7L7X3)
[41] = target: TSSK2 (human) (UniProt Q96PF2)

PLK4 (human), sequence (O00444 whole entry, looked up): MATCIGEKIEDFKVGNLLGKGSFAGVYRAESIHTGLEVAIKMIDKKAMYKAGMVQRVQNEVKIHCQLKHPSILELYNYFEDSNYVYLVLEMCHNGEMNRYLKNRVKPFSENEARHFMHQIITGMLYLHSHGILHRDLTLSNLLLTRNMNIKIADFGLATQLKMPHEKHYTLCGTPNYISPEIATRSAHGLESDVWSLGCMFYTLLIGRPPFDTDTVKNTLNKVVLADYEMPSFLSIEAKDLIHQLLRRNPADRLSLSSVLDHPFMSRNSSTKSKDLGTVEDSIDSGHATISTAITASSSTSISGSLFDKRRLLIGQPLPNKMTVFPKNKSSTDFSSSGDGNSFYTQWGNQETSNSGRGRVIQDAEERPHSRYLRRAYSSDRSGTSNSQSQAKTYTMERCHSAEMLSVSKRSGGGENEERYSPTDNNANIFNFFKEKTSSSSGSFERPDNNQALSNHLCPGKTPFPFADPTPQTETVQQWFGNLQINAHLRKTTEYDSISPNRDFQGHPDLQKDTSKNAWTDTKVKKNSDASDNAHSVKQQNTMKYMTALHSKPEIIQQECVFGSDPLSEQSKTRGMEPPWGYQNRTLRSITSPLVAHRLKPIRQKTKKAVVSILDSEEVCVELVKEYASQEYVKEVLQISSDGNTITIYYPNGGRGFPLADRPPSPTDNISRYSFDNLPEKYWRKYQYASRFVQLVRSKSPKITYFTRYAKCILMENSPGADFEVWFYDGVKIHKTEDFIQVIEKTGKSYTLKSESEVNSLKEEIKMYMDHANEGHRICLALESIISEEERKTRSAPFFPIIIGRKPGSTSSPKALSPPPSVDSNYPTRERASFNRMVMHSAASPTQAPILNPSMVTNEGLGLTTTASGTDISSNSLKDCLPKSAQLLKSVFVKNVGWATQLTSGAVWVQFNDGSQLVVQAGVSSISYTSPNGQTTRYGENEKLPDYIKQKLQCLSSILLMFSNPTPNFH
PDPK1 (human), sequence (O15530 whole entry, looked up): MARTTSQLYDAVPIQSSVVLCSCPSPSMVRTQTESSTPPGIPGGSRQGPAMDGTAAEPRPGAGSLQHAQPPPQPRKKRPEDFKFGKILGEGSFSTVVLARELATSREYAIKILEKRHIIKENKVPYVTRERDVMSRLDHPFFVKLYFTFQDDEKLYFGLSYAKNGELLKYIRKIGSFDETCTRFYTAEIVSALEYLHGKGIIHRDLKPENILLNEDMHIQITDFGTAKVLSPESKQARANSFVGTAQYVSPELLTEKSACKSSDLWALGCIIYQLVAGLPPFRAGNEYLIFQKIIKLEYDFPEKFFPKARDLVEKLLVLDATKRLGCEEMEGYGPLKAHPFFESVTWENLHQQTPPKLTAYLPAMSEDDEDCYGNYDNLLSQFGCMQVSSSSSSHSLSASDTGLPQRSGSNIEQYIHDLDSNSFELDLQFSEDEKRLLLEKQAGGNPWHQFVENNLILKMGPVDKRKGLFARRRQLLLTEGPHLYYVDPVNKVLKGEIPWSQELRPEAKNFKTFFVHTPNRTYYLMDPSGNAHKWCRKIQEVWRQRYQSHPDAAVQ
CSNK1D (human), sequence (P48730 whole entry, looked up): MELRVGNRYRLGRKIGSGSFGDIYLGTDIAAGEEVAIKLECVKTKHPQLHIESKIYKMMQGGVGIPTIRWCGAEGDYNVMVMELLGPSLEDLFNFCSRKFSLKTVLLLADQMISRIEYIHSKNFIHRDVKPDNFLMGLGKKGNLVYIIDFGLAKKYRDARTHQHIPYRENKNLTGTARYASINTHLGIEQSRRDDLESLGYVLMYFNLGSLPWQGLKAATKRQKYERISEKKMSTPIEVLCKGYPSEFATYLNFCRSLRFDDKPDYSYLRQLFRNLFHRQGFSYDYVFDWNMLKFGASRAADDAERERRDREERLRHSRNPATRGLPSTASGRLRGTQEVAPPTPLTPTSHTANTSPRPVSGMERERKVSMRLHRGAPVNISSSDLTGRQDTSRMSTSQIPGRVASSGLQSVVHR
MELK (human), sequence (Q14680 whole entry, looked up): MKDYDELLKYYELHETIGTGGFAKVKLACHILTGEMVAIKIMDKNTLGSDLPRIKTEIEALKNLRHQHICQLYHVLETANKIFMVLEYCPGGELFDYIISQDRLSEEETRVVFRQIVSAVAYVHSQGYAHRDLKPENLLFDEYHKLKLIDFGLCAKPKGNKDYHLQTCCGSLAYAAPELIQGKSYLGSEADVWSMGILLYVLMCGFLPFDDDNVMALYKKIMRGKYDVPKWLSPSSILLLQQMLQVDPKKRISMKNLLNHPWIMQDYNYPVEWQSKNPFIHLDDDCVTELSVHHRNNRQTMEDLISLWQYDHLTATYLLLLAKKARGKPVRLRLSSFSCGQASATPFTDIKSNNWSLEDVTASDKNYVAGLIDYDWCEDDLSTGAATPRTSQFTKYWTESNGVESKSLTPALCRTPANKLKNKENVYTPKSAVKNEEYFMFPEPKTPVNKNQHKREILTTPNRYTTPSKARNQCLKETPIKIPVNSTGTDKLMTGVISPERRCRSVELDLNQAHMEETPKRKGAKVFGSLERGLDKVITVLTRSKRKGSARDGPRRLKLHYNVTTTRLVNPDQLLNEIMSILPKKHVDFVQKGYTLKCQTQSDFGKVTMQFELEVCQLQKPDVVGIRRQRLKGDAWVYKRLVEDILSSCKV
NEK4 (human), sequence (P51957 whole entry, looked up): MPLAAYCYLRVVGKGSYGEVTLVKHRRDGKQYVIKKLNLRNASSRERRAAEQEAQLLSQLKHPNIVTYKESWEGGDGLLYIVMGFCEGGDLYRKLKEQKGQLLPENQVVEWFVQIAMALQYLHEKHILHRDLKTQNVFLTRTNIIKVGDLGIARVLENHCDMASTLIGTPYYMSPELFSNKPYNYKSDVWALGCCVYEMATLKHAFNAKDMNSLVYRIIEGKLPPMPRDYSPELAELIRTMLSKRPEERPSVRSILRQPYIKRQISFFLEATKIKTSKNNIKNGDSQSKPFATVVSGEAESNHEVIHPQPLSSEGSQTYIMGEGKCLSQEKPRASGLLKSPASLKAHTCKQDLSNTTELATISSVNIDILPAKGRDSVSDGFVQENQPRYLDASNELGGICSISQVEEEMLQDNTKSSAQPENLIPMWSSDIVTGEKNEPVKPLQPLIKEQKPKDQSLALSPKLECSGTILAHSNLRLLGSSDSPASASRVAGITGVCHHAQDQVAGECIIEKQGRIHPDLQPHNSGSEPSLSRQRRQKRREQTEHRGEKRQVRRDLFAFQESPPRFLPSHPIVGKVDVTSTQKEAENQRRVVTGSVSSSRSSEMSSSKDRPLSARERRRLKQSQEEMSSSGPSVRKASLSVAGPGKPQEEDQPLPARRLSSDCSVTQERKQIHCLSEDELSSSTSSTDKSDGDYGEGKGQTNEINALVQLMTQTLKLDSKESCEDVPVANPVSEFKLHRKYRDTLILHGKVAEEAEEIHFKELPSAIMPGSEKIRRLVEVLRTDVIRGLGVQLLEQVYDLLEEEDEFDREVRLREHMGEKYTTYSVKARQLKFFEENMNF
CDK1 (human), sequence (P06493 whole entry, looked up): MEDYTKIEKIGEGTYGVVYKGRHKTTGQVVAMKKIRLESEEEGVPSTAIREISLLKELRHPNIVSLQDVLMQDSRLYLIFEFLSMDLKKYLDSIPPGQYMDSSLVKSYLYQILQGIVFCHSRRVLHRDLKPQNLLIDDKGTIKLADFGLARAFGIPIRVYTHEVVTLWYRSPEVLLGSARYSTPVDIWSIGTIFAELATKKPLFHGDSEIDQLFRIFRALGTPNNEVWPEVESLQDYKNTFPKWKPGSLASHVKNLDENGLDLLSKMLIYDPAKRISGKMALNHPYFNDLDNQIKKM
CHEK1 (human), sequence (O14757 whole entry, looked up): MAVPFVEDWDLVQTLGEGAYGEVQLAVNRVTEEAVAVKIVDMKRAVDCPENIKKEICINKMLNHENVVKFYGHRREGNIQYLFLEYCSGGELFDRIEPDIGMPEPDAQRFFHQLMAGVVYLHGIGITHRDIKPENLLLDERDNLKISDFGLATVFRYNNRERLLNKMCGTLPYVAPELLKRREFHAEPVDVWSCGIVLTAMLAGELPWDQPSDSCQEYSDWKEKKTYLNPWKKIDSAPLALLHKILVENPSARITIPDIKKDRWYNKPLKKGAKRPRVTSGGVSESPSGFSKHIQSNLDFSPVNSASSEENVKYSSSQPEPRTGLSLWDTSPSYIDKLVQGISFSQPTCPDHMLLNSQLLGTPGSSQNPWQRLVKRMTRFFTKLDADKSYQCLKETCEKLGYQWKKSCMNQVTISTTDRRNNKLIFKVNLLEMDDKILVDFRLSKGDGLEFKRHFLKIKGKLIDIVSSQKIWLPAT
CSNK1G3 (human), sequence (Q9Y6M4 whole entry, looked up): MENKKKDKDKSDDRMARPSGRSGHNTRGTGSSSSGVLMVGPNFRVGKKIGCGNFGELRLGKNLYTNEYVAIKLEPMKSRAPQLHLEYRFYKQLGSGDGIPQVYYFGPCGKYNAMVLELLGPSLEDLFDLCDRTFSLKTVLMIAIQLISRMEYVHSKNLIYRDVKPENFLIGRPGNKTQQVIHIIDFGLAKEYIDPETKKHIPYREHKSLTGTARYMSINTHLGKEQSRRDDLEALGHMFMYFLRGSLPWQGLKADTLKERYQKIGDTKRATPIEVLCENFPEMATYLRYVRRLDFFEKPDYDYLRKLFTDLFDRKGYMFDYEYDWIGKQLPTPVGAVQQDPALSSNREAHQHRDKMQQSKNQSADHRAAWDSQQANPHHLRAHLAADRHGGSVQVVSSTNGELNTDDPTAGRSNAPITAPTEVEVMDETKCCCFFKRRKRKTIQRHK

**Q.** Which results are given for `O=C1c2ccccc2-c2n[nH]c3cccc1c23`?
**A.** Ki [1]: > 7940 nM; Ki [2]: > 7940 nM; Ki [3]: 10 nM; Ki [4]: 794 nM; Ki [5]: 1580 nM; Ki [6]: > 10000 nM; Ki [7]: 1000 nM; Ki [8]: 1260 nM; Ki [9]: 501 nM; Ki [10]: 631 nM; Ki [11]: 63.1 nM; Ki [12]: 31.6 nM; Ki [13]: > 6310 nM; Ki [14]: 2000 nM; Ki [15]: 1000 nM; Ki [16]: 398 nM; Ki [17]: 126 nM; Ki [18]: 1260 nM; Ki [19]: 316 nM; Ki [20]: 2000 nM; Ki [21]: > 6310 nM; Ki [22]: > 7940 nM; Ki [23]: 398 nM; Ki [24]: 316 nM; Ki [25]: 1000 nM; Ki [26]: > 10000 nM; Ki [27]: 631 nM; Ki [28]: 631 nM; Ki [29]: 200 nM; Ki [30]: > 7940 nM; Ki [31]: > 7940 nM; Ki [32]: 200 nM; Ki [33]: > 7940 nM; Ki [34]: > 7940 nM; Ki [35]: > 2000 nM; Ki [36]: > 1580 nM; Ki [37]: 398 nM; Ki [38]: 251 nM; Ki [39]: 39.8 nM; Ki [40]: 5010 nM; Ki [41]: > 1580 nM
